Biological target: Human immunodeficiency virus type 1 protease (Human immunodeficiency virus 1, UniProt Q72874)
Experiment: Inhibition of human immunodeficiency virus type 1 (HIV-1) protease

Row | Structure (SMILES) | IC50 [µM]
1 | CC(C)(C)NC(=O)[C@H](CC1CCCCC1)N1CCC(O)([C@H](Cc2ccccc2)NC(=O)OC(C)(C)C)CC1 | > 100
2 | CC(C)(C)OC(=O)N[C@@H](Cc1ccccc1)[C@@]1(O)CCN([C@@H](Cc2ccccc2)C(=O)N[C@H]2c3ccccc3C[C@H]2O)C1 | 6
3 | CC(C)(C)OC(=O)N[C@@H](Cc1ccccc1)C1(O)CCN([C@@H](Cc2ccccc2)C(=O)N[C@H]2c3ccccc3C[C@H]2O)CC1 | 1.46
4 | CC(C)(C)OC(=O)N[C@@H](Cc1ccccc1)[C@]1(O)CCCN([C@@H](Cc2ccccc2)C(=O)N[C@H]2c3ccccc3C[C@H]2O)C1 | > 100
5 | O=C(N[C@@H](Cc1ccccc1)C1(O)CCN([C@@H](Cc2ccccc2)C(=O)N[C@H]2c3ccccc3C[C@H]2O)CC1)O[C@H]1CCOC1 | 29.7
6 | CC(C)(C)NC(=O)[C@H](CC1CCCCC1)N1CCC[C@](O)([C@H](Cc2ccccc2)NC(=O)OC(C)(C)C)C1 | > 100
7 | CC(C)[C@H](NC(=O)OCc1ccccc1)C(=O)N[C@@H](Cc1ccccc1)C1(O)CCN(CCc2ccccc2)CC1 | 38.7
8 | CC(C)C[C@@H](C(=O)NC(C)(C)C)N1CCC[C@@](O)([C@H](Cc2ccccc2)NC(=O)OC(C)(C)C)C1 | > 100
9 | CC(C)C[C@@H](C(=O)NC(C)(C)C)N1CCC(O)([C@H](Cc2ccccc2)NC(=O)[C@@H](NC(=O)OCc2ccccc2)C(C)C)CC1 | 26.7
10 | CC(C)[C@H](NC(=O)OCc1ccccc1)C(=O)N[C@@H](Cc1ccccc1)[C@]1(O)CCN([C@@H](Cc2ccccc2)C(=O)N[C@H]2c3ccccc3C[C@H]2O)C1 | 0.22
11 | CC(C)(C)OC(=O)N[C@@H](Cc1ccccc1)[C@]1(O)CCN([C@@H](Cc2ccccc2)C(=O)N[C@H]2c3ccccc3C[C@H]2O)C1 | 0.6
12 | CC(C)(C)NC(=O)[C@H](CC1CCCCC1)N1CC[C@@](O)([C@H](Cc2ccccc2)NC(=O)OC(C)(C)C)C1 | 37

Source: ChEMBL document CHEMBL1127971, “Novel conformationally constrained HIV-1 protease inhibitors: rational design, enzyme inhibition, and X-ray structure of an enzyme-inhibtor complex” (Bioorg Med Chem Lett, 1994)
